Experimental data as given in patent publication US10189809B2, “SGC stimulators” (Ironwood Pharmaceuticals, Inc., priority 2010, dated 2019).
pEC50: −log10 of the molar value. Where two headings read alike, the source gives them in different places.

Key:
[1] = biological target: soluble guanylate cyclase (sGC) (Homo sapiens (Human), UniProt Q02108+Q02153); assay: sGC-HEK-cGMP assay run with SNP incubation (HEK WC assay); format: cell-based; conditions: for pEC50: in the presence of 10 uM SNP
Procedure: Human embryonic kidney cells (HEK293), endogenously expressing soluble guanylate cyclase (sGC), were used to evaluate the activity of test compounds. Compounds stimulating the sGC receptor should cause an increase in the intracellular concentration of cGMP. HEK 293 cells were seeded in Dulbecco's Modification of Eagle's Medium supplemented with fetal bovine serum (10% final) and L-glutamine (2 mM final) in a 200 μL volume at a density of 1×10^5 cells/well in a poly-D-lysine coated 96 well flat bottom plate and grown overnight at 37° C. Medium was aspirated and cells were washed with 1× Hank's Buffered Saline Salt Solution (200 μL). Cells were then incubated for 15 minutes at 37° C. with 0.5 mM 3-isobutyl-1-methylxanthine (200 μL). Test article and sodium nitroprusside were then added to the assay mixture (2 μL each) and incubated at 37° C. for 10 minutes. After the 10 minute incubation, the assay mixture was aspirated and 0.1M HCl (200 μL) was added to the cells. The plate was incubated at 4° C. for 30 minutes in the 0.1M HCl to stop the reaction and lysed the cells. The plates were then centrifuged at 1,200 g for 5 minutes at room temperature. Supernatants were collected and transferred to a new flat bottom 96 well plate for analysis. Vehicle controls were carried out using DMSO (1%). […] Samples were diluted with an equal volume of 1 M Ammonium Acetate (pH 7) to neutralize samples for better chromatography. […] EC50 values were calculated from concentration-response curves generated with GraphPad Prism Software.

[2] = biological target: Human soluble guanylate cyclase enzyme (hsGC) (Homo sapiens (Human), UniProt Q02108+Q02153); assay: Purified human sGC enzyme activity assay; format: biochemical; conditions: for sGC Enzyme (specific activity at 10 μM) / sGC Enzyme (fold increase at 10 μM without SNP) / sGC Enzyme (fold increase at 10 μM): 10 μM compound; for sGC Enzyme (specific activity at 30 μM) / sGC Enzyme (fold increase at 30 μM without SNP) / sGC Enzyme (fold increase at 30 μM): 30 μM compound; for sGC Enzyme (fold increase at 10 μM) / sGC Enzyme (fold increase at 30 μM): without the addition of SNP
Procedure: Human soluble guanylate cyclase enzyme (hsGC) obtained from Enzo Inc. (P/N: ALX-201-177) was used to evaluate the activity of test compounds. The assay reactions contained 0.1 M Tris (pH 8.0), 0.5 mg/mL BSA (pH 8.0), 2 mM DTT, 2 mM MgCl2, 300 μM GTP, 1 mM 3-isobutyl-1-methylxanthine (IBMX) and 5 ng human soluble guanylate cyclase enzyme. Test compounds in DMSO were then added (2 μL, 10 or 30 μM final concentration) and incubated (200 μL, 96-well plate format) at 37° C. for 30 minutes. The controls were carried out using 2 μL DMSO. After the 30 minute incubation, the reaction was stopped with the addition of 200 μL of cold methanol. The plate was then centrifuged at 3,200 rpm for 10 minutes at room temperature. Supernatants (200 μL) were collected and transferred to a new 96 well plate for analysis.
An 8 point cGMP (Sigma-Aldrich P/N: G6129) standard curve was prepared in assay buffer ranging from 0.156-20 μM. Samples for the cGMP standard curve were then diluted with an equal volume of methanol resulting in final cGMP concentrations of 0.078-10 μM.
The cGMP standard curve was generated using GraphPad Prism Software.
Calculations: Specific Activity was determined by the amount of cGMP formed (nmoles) per mg of sGC per min. Enzyme “fold-change” was calculated by dividing Specific Activity for test compounds by Specific Activity of DMSO controls.

Thoracic aortic rings = assay: Alternative thoracic aortic rings assay (Example 19b; resting tension as 100% inhibition); set-up: species or system rat; conditions: Rattus norvegicus, Table 10B
Procedure: Thoracic aortic rings were dissected from anesthetized (isoflurane) male Sprague-Dawley rats weighing 275-299 g. Tissues were immediately transferred to ice-cold Krebs-Henseleit solution, which had been aerated with 95% O2 and 5% CO2 for 30 minutes. Following removal of connective tissue, aortic sections were cut into 4 rings (˜2 mm each) and suspended on 2 L-shaped hooks, with one hook fixed at the bottom of the tissue bath (Schuler Organ Bath, Harvard Apparatus) and the other connected to a force transducer (F30 Force Transducer, Harvard Apparatus). Baths contained Krebs Henseleit solution (10 mL) heated to 37° C. and aerated with 95% O2 and 5% CO2. Rings were brought to an initial tension of 0.3-0.5 g and gradually raised to a resting tension of 1.0 g over 60 minutes. Rings were rinsed with Krebs Henseleit solution (heated to 37° C. and aerated with 95% O2 and 5% CO2) at 15 minute intervals until a stable baseline was obtained. Rings were considered to be stable after a resting tension of 1.0 g was maintained (for approximately 10 minutes) without need for adjustment. Rings were then contracted with 100 ng/mL phenylephrine by adding 100 uL of a 10 μg/mL phenylephrine stock solution. Tissues achieving a stable contraction were then treated in a cumulative, dose dependent manner with test compounds prepared in dimethylsulfoxide (DMSO). In some cases, tissues were rinsed three times over a 5 minute period with Krebs-Heinseleit's solution (heated to 37° C. and aerated with 95% O2 and 5% CO2), allowed to stabilize at baseline, and then used for characterization of other test articles or DMSO effects. All data were collected using the HSE-ACAD software provided by Harvard Apparatus. […] EC50 values were calculated from concentration-response curves generated with GraphPad Prism Software.

[3] = read-out: HEK WC Assay (% Emax at 10 uM/with 10 uM SNP)
[4] = read-out: HEK WC Assay (% Emax at 30 uM/with 10 uM SNP)
[5] = read-out: HEK WC Assay (% Emax at 1 μM with 10 uM SNP)
[6] = read-out: HEK WC Assay (% Emax at 10 μM with 10 uM SNP)
[7] = read-out: HEK WC Assay (% Emax at 30 μM with 10 uM SNP)

Chain of soluble guanylate cyclase (sGC) (Q02153 whole entry): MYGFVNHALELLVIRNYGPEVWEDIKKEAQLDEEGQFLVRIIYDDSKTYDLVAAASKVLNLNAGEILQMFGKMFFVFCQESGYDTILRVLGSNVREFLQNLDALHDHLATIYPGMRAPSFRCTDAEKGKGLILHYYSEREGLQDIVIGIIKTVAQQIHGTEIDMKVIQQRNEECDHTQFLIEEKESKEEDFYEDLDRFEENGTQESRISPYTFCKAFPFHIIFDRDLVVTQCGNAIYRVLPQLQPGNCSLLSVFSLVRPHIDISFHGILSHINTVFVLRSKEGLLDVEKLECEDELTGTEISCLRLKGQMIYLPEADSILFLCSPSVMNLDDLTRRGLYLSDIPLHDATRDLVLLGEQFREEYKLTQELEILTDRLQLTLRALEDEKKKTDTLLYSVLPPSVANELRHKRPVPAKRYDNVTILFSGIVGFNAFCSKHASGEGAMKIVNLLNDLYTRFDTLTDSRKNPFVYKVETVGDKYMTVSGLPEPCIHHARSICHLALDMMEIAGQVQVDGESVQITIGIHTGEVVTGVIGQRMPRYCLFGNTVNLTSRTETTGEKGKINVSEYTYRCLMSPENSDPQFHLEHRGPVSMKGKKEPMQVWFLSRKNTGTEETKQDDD
Chain of soluble guanylate cyclase (sGC) (Q02108 whole entry): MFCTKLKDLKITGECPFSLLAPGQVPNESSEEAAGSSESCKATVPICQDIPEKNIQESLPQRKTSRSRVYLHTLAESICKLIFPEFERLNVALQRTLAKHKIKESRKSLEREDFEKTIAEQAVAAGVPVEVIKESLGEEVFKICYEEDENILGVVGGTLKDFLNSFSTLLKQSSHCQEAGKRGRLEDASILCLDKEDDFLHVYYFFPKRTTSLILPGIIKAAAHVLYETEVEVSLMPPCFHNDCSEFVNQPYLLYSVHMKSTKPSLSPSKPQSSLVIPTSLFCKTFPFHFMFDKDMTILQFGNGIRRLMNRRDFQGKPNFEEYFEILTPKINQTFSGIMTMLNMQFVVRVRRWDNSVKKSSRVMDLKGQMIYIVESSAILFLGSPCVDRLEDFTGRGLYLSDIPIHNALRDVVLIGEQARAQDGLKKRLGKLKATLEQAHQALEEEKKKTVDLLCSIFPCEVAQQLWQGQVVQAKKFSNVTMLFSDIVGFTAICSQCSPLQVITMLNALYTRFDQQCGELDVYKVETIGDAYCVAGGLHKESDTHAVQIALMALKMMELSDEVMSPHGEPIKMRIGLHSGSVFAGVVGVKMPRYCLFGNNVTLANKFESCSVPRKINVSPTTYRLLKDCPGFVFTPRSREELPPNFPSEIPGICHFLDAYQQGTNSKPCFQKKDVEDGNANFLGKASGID
Chain of Human soluble guanylate cyclase enzyme (hsGC) (Q02153 whole entry): as the sequence (Q02153 whole entry) above
Chain of Human soluble guanylate cyclase enzyme (hsGC) (Q02108 whole entry): as the sequence (Q02108 whole entry) above

SMILES | Emax at 10 µM [1, 3] [%] | Emax at 30 µM [1, 4] [%] | sGC Enzyme (specific activity at 10 μM) [2] | sGC Enzyme (fold increase at 10 μM without SNP) [2] | sGC Enzyme (specific activity at 30 μM) [2] | sGC Enzyme (fold increase at 30 μM without SNP) [2] | Emax [1, 6] [%] | Emax [1, 7] [%] | also measured
CS(=O)(=O)c1ccc(-c2cc(-c3ccccn3)n(Cc3ccccc3F)n2)nc1 [Compound I-50, 2-(1-(2-fluorobenzyl)-5-(pyridin-2-yl)-1H-pyrazol-3-yl)-5-(methylsulfonyl)pyridine] | 0 to 10 | 0 to 10 | B (B = 50 to <100) | A (A = no increase to <2 fold increase) | B (B = 50 to <100) | A (A = no increase to <2 fold increase) |  |  | 
N#Cc1ccc(-c2cc(-c3ccccn3)nn2Cc2ccccc2F)cc1 [Compound I-17] |  |  | B (B = 50 to <100) | A (A = no increase to <2 fold increase) | B (B = 50 to <100) | A (A = no increase to <2 fold increase) |  |  | 
COc1ccc(-c2cc(-c3ncccn3)nn2Cc2ccccc2F)cn1 [Compound I-77, 2-(1-(2-fluorobenzyl)-5-(6-methoxypyridin-3-yl)-1H-pyrazol-3-yl)pyrimidine] |  |  |  |  |  |  |  |  | sGC Enzyme (fold increase at 10 μM) [2]: A (A = no increase to <2 fold increase); sGC Enzyme (fold increase at 30 μM) [2]: A (A = no increase to <2 fold increase)
COc1cccc(-c2cc(-c3ccccn3)n(Cc3ccccc3F)n2)n1 [Compound I-78] |  |  |  |  |  |  |  |  | sGC Enzyme (fold increase at 10 μM) [2]: A (A = no increase to <2 fold increase); sGC Enzyme (fold increase at 30 μM) [2]: A (A = no increase to <2 fold increase)
Oc1nc(-c2cc(-c3ccon3)n(Cc3ccccc3F)n2)ncc1F [Compound I-161] |  |  |  |  |  |  |  |  | inhibition at 1 µM (Thoracic aortic rings; 1 μM, read-out: Percent Relaxation at 1 μM): 80 to 100%; inhibition at 3 µM (Thoracic aortic rings; 3 μM, read-out: Percent Relaxation at 3 μM): 100 to 120%; pEC50 (Thoracic aortic rings; read-out: Aortic Ring EC50): > 5.70
Fc1cccc(-c2cc(-c3ccccn3)nn2Cc2ccccc2F)c1 [Compound I-9] | 0 to 10 | 0 to 10 | C (C = 100 to <200) | A (A = no increase to <2 fold increase) | C (C = 100 to <200) | B (B = 2 to <5 fold increase) |  |  | 
N#Cc1cccc(-c2cc(-c3ccccn3)nn2Cc2ccccc2F)c1 [Compound I-16] |  |  | B (B = 50 to <100) | A (A = no increase to <2 fold increase) | B (B = 50 to <100) | A (A = no increase to <2 fold increase) |  |  | 
Fc1ccccc1Cn1nc(-c2ccccn2)cc1-c1ncccn1 [Compound I-80] |  |  |  |  |  |  |  |  | Emax at 10 µM ([1]; read-out: HEK WC Assay (% Emax at 10 μM/with 10 uM SNP)): 0 to 10%; Emax at 30 µM ([1]; read-out: HEK WC Assay (% Emax at 30 μM/with 10 uM SNP)): 0 to 10%; sGC Enzyme (fold increase at 10 μM) [2]: A (A = no increase to <2 fold increase); sGC Enzyme (fold increase at 30 μM) [2]: A (A = no increase to <2 fold increase)
Cc1cc(-c2cc(-c3ccccn3)nn2Cc2ccccc2F)c(C)s1 [Compound I-8] | 0 to 10 | 0 to 10 | C (C = 100 to <200) | A (A = no increase to <2 fold increase) | D (D = 200 to <500) | B (B = 2 to <5 fold increase) |  |  | 
Fc1ccc(-c2cc(-c3ccccn3)nn2Cc2ccccc2F)cc1 [Compound I-12] | 0 to 10 | 0 to 10 | C (C = 100 to <200) | A (A = no increase to <2 fold increase) | C (C = 100 to <200) | A (A = no increase to <2 fold increase) |  |  | 
Cc1cc(-c2cc(-c3ncccn3)nn2Cc2ccccc2F)c(C)s1 [Compound I-14] | 0 to 10 | 0 to 10 | C (C = 100 to <200) | A (A = no increase to <2 fold increase) | C (C = 100 to <200) | A (A = no increase to <2 fold increase) |  |  | 
O=S(=O)(c1cc(Cl)ccc1Cl)c1cnc(-c2cc(-c3ccon3)n(Cc3ccccc3F)n2)nc1O [Compound I-242] |  |  |  |  |  |  | 20 to 40 | 20 to 40 | pEC50 [1]: 4.00 to 4.22; Emax [1, 5]: 10 to 20%
Fc1ccccc1Cn1nc(-c2nc(Cl)cc(C(F)(F)F)n2)cc1-c1ccon1 [Compound I-273] |  |  |  |  |  |  | 20 to 40 | 20 to 40 | 
Nc1ccnc(-c2cc(-c3ccco3)n(Cc3ccccc3F)n2)n1 [Compound I-284] |  |  |  |  |  |  | 60 to 80 | 60 to 80 | 
CC1(C(=O)Nc2cnc(-c3cc(-c4ccon4)n(Cc4ccccc4F)n3)nc2N)CC1(Cl)Cl (stereo not drawn) [Compound I-260] |  |  |  |  |  |  | 100 to 120 | 80 to 100 | pEC50 [1]: > 4.70; Emax [1, 5]: 80 to 100%
Fc1ccccc1Cn1nc(-c2ncccn2)cc1-c1cc2ccccc2o1 [Compound I-68] | 0 to 10 | 0 to 10 |  | A (A = no increase to <2 fold increase) |  | A (A = no increase to <2 fold increase) |  |  | 
CCC(C)(C)C(=O)Nc1cnc(-c2cc(-c3ccon3)n(Cc3ccccc3F)n2)nc1N [Compound I-247] |  |  |  |  |  |  | 60 to 80 | 80 to 100 | pEC50 [1]: > 4.70; Emax [1, 5]: 20 to 40%
Fc1ccccc1Cn1nc(-c2nc(Cl)cc(-c3cccnc3)n2)cc1-c1ccon1 [Compound I-301] |  |  |  |  |  |  | 40 to 60 | 60 to 80 | pEC50 [1]: > 4.70
